{"source": "paper PMC7680422", "about": "(European journal of medicinal chemistry, 2020)", "key": {"[1]": {"target": "dopamine transporter (DAT) (Rattus norvegicus, UniProt P23977)", "sequence (P23977 whole entry)": "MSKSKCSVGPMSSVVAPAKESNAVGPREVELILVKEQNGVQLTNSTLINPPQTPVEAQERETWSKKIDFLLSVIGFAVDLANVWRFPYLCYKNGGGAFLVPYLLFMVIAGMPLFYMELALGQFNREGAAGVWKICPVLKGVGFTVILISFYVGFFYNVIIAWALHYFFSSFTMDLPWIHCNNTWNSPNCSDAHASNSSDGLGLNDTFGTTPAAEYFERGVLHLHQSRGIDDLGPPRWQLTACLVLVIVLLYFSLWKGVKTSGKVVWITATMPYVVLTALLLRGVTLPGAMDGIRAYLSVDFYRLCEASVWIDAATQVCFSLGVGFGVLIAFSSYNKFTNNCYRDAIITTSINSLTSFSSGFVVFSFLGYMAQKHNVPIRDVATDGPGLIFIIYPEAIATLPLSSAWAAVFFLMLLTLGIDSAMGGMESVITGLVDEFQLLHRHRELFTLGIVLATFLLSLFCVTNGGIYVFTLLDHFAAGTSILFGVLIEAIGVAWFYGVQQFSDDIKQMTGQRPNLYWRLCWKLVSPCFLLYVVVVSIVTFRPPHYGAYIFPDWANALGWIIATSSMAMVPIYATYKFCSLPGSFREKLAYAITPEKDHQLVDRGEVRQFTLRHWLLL", "test": "DAT binding assay, [3H]WIN35,428, rat striatum membranes"}, "[2]": {"system": "Swiss Webster mice", "test": "Locomotor activity studies in mice", "conditions": "i.p., doses up to 30 mg/kg, distance travelled"}, "[3]": {"test": "Phase I metabolic stability in mouse liver microsomes", "assay_type": "in vitro ADME"}, "[4]": {"test": "Phase I metabolic stability in rat liver microsomes", "assay_type": "in vitro ADME"}, "[5]": {"system": "methamphetamine self-administration", "conditions": "short access and long access groups; cited from earlier work"}}, "note": "“Also recorded” adds a separate entry of the source.", "data": [{"smiles": "O=C(c1ccccc1)N1CCC(NCC[S+]([O-])C(c2ccc(F)cc2)c2ccc(F)cc2)CC1", "note": "(stereo not shown) [Compound 21a, (4-((2-((Bis(4-fluorophenyl)methyl)sulfinyl)ethyl)amino)piperidin-1-yl)(phenyl)methanone]", "values": [{"measurement": "DAT over SERT selectivity", "setting": "[1]", "result": "~100", "unit": "fold"}]}, {"smiles": "COC(=O)[C@H]1[C@@H](OC(=O)c2ccccc2)C[C@@H]2CC[C@H]1N2C", "note": "[cocaine, reference compound]", "values": [{"measurement": "stimulation of ambulatory activity (in words)", "setting": "[2]", "result": "large, significant increase in ambulatory activity"}]}, {"smiles": "O=C(c1ccc(F)cc1F)N1CCC(NCCSC(c2ccc(F)cc2)c2ccc(F)cc2)CC1", "note": "[Compound 33, (4-((2-((Bis(4-fluorophenyl)methyl)thio)ethyl)amino)piperidin-1-yl)(2,4-difluorophenyl)methanone]", "values": [{"measurement": "metabolic stability / susceptibility to phase I metabolism (in words)", "setting": "[3]", "result": "susceptibility to phase I metabolism; also recorded: significantly less stable"}, {"measurement": "stimulation of ambulatory activity (in words)", "setting": "[2]", "result": "only minimal stimulation of ambulatory activity"}]}, {"smiles": "O=C(c1ccc(F)cc1)N1CCC(NCCSC(c2ccc(F)cc2)c2ccc(F)cc2)CC1", "note": "[Compound 19b, (4-((2-((Bis(4-fluorophenyl)methyl)thio)ethyl)amino)piperidin-1-yl)(4-fluorophenyl)methanone]", "values": [{"measurement": "metabolic stability / susceptibility to phase I metabolism (in words)", "setting": "[4]", "result": "less stable; also recorded: susceptibility to phase I metabolism"}]}, {"smiles": "OC(CNC1CCN(CCSC(c2ccc(F)cc2)c2ccc(F)cc2)CC1)Cc1ccccc1", "note": "(stereo not shown) [Compound 16, 1-((1-(2-((Bis(4-fluorophenyl)methyl)thio)ethyl)piperidin-4-yl)amino)-3-phenylpropan-2-ol]", "values": [{"measurement": "metabolic stability / susceptibility to phase I metabolism (in words)", "setting": "[4]", "result": "relatively metabolically stable"}]}, {"smiles": "[O-][S+](CCNC1CCN(CC(O)Cc2ccccc2)CC1)C(c1ccc(F)cc1)c1ccc(F)cc1", "note": "(stereo not shown) [Compound 11, 1-(4-((2-((Bis(4-fluorophenyl)methyl)sulfinyl)ethyl)amino)piperidin-1-yl)-3-phenylpropan-2-ol]", "values": [{"measurement": "metabolic stability / susceptibility to phase I metabolism (in words)", "setting": "[4]", "result": "less stable; also recorded: susceptibility to phase I metabolism"}]}, {"smiles": "[O-][S+](CCNC1CCN(Cc2ccc(F)cc2)CC1)C(c1ccc(F)cc1)c1ccc(F)cc1", "note": "(stereo not shown) [Compound 7, N-(2-((Bis(4-fluorophenyl)methyl)sulfinyl)ethyl)-1-(4-fluorobenzyl)piperidin-4-amine]", "values": [{"measurement": "metabolic stability / susceptibility to phase I metabolism (in words)", "setting": "[4]", "result": "relatively metabolically stable"}, {"measurement": "metabolic stability / susceptibility to phase I metabolism (in words)", "setting": "[3]", "result": "susceptibility to phase I metabolism; also recorded: significantly less stable"}, {"measurement": "stimulation of ambulatory activity (in words)", "setting": "[2]", "result": "only minimal stimulation of ambulatory activity"}]}, {"smiles": "[O-][S+](CCN1CCN(CC(O)Cc2ccccc2)CC1)C(c1ccc(F)cc1)c1ccc(F)cc1", "note": "(stereo not shown) [Compound 2]", "values": [{"measurement": "attenuation of methamphetamine self-administration (in words)", "setting": "[5]", "result": "not effective in either rodent population"}]}, {"smiles": "Fc1ccc(CN2CCC(NCCSC(c3ccc(F)cc3)c3ccc(F)cc3)CC2)cc1", "note": "[Compound 6b, N-(2-((Bis(4-fluorophenyl)methyl)thio)ethyl)-1-(4-fluorobenzyl)piperidin-4-amine]", "values": [{"measurement": "metabolic stability / susceptibility to phase I metabolism (in words)", "setting": "[4]", "result": "relatively metabolically stable"}]}, {"smiles": "O=C(c1ccccc1)N1CCC(NCCSC(c2ccc(F)cc2)c2ccc(F)cc2)CC1", "note": "[Compound 19a, (4-((2-((Bis(4-fluorophenyl)methyl)thio)ethyl)amino)piperidin-1-yl)(phenyl)methanone]", "values": [{"measurement": "metabolic stability / susceptibility to phase I metabolism (in words)", "setting": "[4]", "result": "less stable; also recorded: susceptibility to phase I metabolism"}]}, {"smiles": "O=C(c1ccc(F)cc1)N1CCC(NCC[S+]([O-])C(c2ccc(F)cc2)c2ccc(F)cc2)CC1", "note": "(stereo not shown) [Compound 21b, (4-((2-((Bis(4-fluorophenyl)methyl)sulfinyl)ethyl)amino)piperidin-1-yl)(4-fluorophenyl)methanone]", "values": [{"measurement": "metabolic stability / susceptibility to phase I metabolism (in words)", "setting": "[4]", "result": "relatively metabolically stable"}, {"measurement": "metabolic stability / susceptibility to phase I metabolism (in words)", "setting": "[3]", "result": "susceptibility to phase I metabolism; also recorded: significantly less stable"}, {"measurement": "stimulation of ambulatory activity (in words)", "setting": "[2]", "result": "only minimal stimulation of ambulatory activity"}]}, {"smiles": "OC(Cc1ccccc1)CN1CCC(NCCSC(c2ccc(F)cc2)c2ccc(F)cc2)CC1", "note": "(stereo not shown) [Compound 10, 1-(4-((2-((Bis(4-fluorophenyl)methyl)thio)ethyl)amino)piperidin-1-yl)-3-phenylpropan-2-ol]", "values": [{"measurement": "metabolic stability / susceptibility to phase I metabolism (in words)", "setting": "[4]", "result": "relatively metabolically stable"}]}, {"smiles": "CC(O)CN1CCN(CC[S+]([O-])C(c2ccc(F)cc2)c2ccc(F)cc2)CC1", "note": "(stereo not shown) [Compound 1]", "values": [{"measurement": "attenuation of methamphetamine self-administration (in words)", "setting": "[5]", "result": "effective in attenuating this behavior in both groups"}]}, {"smiles": "CC(O)CN1CCN(CCSC(c2ccc(F)cc2)c2ccc(F)cc2)CC1", "note": "(stereo not shown) [Compound 3a]", "values": [{"measurement": "attenuation of methamphetamine self-administration (in words)", "setting": "[5]", "result": "effective only in the long access group"}]}]}
